# Data published in US4804651A, “Methods and compositions for the treatment of psoriasis” (Board of Regents, The University of Texas System, priority 1987, dated 1989).
# Read-outs that look alike come from different tables or passages of the source.
# Legend:
# [1] = tested on: patients (AIDS) recovered from Pneumocystis carinii pneumonia (PCP) and late AIDS-Related Complex (ARC); settings: cited from earlier work
# Cynomolgus monkeys [2] = settings: cited from earlier work
# Cynomolgus monkeys [3] = settings: cited from earlier work; remark: listed apart in the source
# [4] = in vivo; cited from earlier work
# dogs = settings: IV dose levels up to 85 mg/kg/day for 2 weeks; cited from earlier work
# Beagle dogs = settings: cited from earlier work
# mice = settings: intravenous (IV); cited from earlier work
# [5] = tested on: patients with AIDS OR AIDS-related complex and HTLV-III/LAV viremia; settings: cited from earlier work
# [6] = Progression of AIDS in the individual treated for psoriasis; type: in vivo, human; settings: 800 mg orally per day
# From the text: Of the following examples, examples I through IV disclose toxicity data obtained from the manufacturer of AZT, Burroughs Wellcome Drug Co., developed during the course of obtaining FDA approval for use of the drug in the treatment of AIDS. However, treatment protocols effective in treating psoriasis are similar.
# An individual developed severe psoriasis and AIDS-related complex (ARC). As their immunity diminished over the next eight months to a T4 count of 14/mm^3, the psoriasis became more extensive, including 60% of their body, all nails and digits.
# Ten months after developing the ARC and psoriasis, the individual developed Pneumocystis carinii pneumonia (PCP) and esophageal candidiasis.
# rats [7] = settings: oral, up to 500 mg/kg/day; cited from earlier work
# [8] = cited from earlier work
# rats [9] = settings: intravenous (IV); cited from earlier work
# [10] = Treatment of severe psoriasis in an individual with AIDS-related complex
# [11] = tested on: cultured human lymphocytes; settings: in vitro; cited from earlier work
# rats [12] = settings: IV dose levels up to 150 mg/kg/day for one month; cited from earlier work
# rats [13] = settings: cited from earlier work
# pregnant rats = settings: up to 500 mg/kg oral, gestation day 6 through 15; cited from earlier work
# [14] = one female dog, sacrificed on day 14
structure (smiles),measurement,setting,value
"Cc1cn([C@H]2C[C@H](N=[N+]=[N-])[C@@H](CO)O2)c(=O)[nH]c1=O [azidothymidine, 3'-azido-3'-deoxythymidine]",reduction in dosage or interruption of treatment,[1]; 250 mg every 4 hours (1.5 grams daily),"Many patients on AZT required a reduction in dosage or interruption of treatment, primarily because of anemia"
same,deaths (AZT group),"[1]; 250 mg every 4 hours, as of Sept. 18, 1986, 16 in patients receiving placebo",one
same,patients requiring blood transfusions,"[1]; human, in vivo",approximately 25%
same,decreases in hemoglobin and neutrophils,"[1]; second month of therapy, dose decreased or drug discontinued",decreases in hemoglobin and neutrophils occurred during the second month of therapy and appeared to be reversible if the dose was decreased or drug discontinued
same,patients with greater than 25% reduction in hemoglobin,"[1]; vs 13 of 137 patients receiving placebo, preliminary review",47 of 145
same,recovery of hematology values,Cynomolgus monkeys [2]; 26-39 day post-dosing recovery period,These values returned to normal limits during the 26-39 day post-dosing recovery period
same,"RBCs, hemoglobin, and hematocrit","Cynomolgus monkeys [2]; 34, 100, or 300 mg/kg by gavage, day 21","dose-related decreases in RBCs, hemoglobin, and hematocrit at day 21"
same,hemoglobin and hematocrit,Cynomolgus monkeys [2]; remainder of treatment period after day 21,hemoglobin and hematocrit remained stable
same,RBCs,Cynomolgus monkeys [2]; until the end of treatment,further reduced until the end of treatment
same,vomiting,"Cynomolgus monkeys [3]; Cynomolgus monkeys, high dose male, oral, 2 weeks",frequent vomiting in the high dose male
same,"RBC, HCT, Hgb","Cynomolgus monkeys [3]; all treatment levels (125, 250, 500 mg/kg/day), oral 2 weeks, values still within normal limits","a slight nondose-related decrease (values still within normal limits) in RBC, HCT, Hgb at all treatment levels"
same,SGPT,"Cynomolgus monkeys [3]; treated males and the high dose female, values still within normal limits",a slight increase in SGPT (Values still within normal limits) in treated males and the high dose female
same,side effects,[4],"hematologic abnormalities such as anemia, neutropenia, bone marrow toxicity, headache, mild CNS symptoms, insomnia"
same,alterations,dogs,No significant alterations were seen
same,leukopenia and thrombocytopenia,"Beagle dogs; Beagle dogs, oral, all dose levels (125, 250, 500 mg/kg/day), 2 weeks",Moderate to marked leukopenia and thrombocytopenia was noted at all dose levels
same,vomiting and fecal alterations,"Beagle dogs; Beagle dogs, oral, high doses, daily for 2 weeks",Vomiting and fecal alterations (with blood) were seen in dogs receiving high doses
same,bone marrow and lymphoid tissue findings,"Beagle dogs; Beagle dogs, oral, further studies",hypocellularity of the bone marrow; hypoactive lymphoid tissues were also noted
same,gross gastrointestinal findings,"Beagle dogs; high dose dogs and a mid-dose female, high dose female","hemorrhage in the gastrointestinal tract in the high dose dogs and a mid-dose female, as well as a maturational defect with mucosal atrophy in the intestinal tract of the high dose female were observed"
same,"alkaline phosphatase, BUN, and creatinine",Beagle dogs; [14],"alkaline phosphatase, BUN, and creatinine were elevated"
same,weight loss,Beagle dogs; [14],significant weight loss
same,LD50,mice,greater than 70 mg/kg
same,mild confusion or anxiety (number of patients),[5]; 29 patients,Three
same,transient elevations in transaminases (number of patients),[5]; 29 patients,Five
same,transient erythematous rash (number of patients),[5]; 29 patients,one
same,decline in hemoglobin,[5]; by six weeks,"all patients had some decline in hemoglobin by six weeks, the change was not proportional to the starting dose"
same,deaths,[5]; during the year since the trial was initiated,Four
same,anemia which warranted dose reduction or temporary interruption,"[5]; human, in vivo, po",Twenty of 28 patients
same,dose-limiting toxicity / response of neutropenia,"[5]; human, in vivo",appeared to be the dose-limiting toxicity. Neutropenia responded favorably to reduction in dose of AZT
same,effect on electrolytes or renal or cardiac function,"[5]; human, in vivo",no effect on electrolytes or renal or cardiac function
same,headache (number of patients),"[5]; human, in vivo",8 patients
same,neutropenia (number of patients),"[5]; human, in vivo",13 patients
same,generalized pruritus (number of patients),"[5]; one episode, 29 patients",one
same,bone marrow biopsies,[5]; three patients,megaloblastic changes
same,reversibility of anemia,[5]; when the drug is discontinued,reversible in most patients when the drug is discontinued
same,efficacy in relieving the progression of AIDS,[6],no efficacy in relieving the progression of this individual's AIDS
same,histologic changes in liver and kidney,rats [7],very minimal histologic changes in the liver and kidney of a few animals were observed
same,Cmax,"[8]; Group A, IV, 1.0 mg/kg Q 8 hr",0.44 ± 0.14 microgram/ml
same,Cmax,"[8]; Group A, oral, 2.0 mg/kg Q 8 hr",0.53 ± 0.11 microgram/ml
same,Cmax,"[8]; Group B, IV, 2.5 mg/kg Q 8 hr",1.17 ± 0.49 microgram/ml
same,Cmax,"[8]; Group B, oral, 5.0 mg/kg Q 8 hr",1.37 ± 0.58 microgram/ml
same,Cmax,"[8]; Group C, IV, 2.5 mg/kg Q 4 hr",1.06 ± 0.03 microgram/ml
same,Cmax,"[8]; Group C, oral, 5.0 mg/kg Q 4 hr",1.57 ± 0.81 microgram/ml
same,Cmax,"[8]; Group D, IV, 5.0 mg/kg Q 4 hr",2.28 ± 0.31 microgram/ml
same,Cmax,"[8]; Group D, oral, 10.0 mg/kg Q 4 hr",3.14 ± 0.73 microgram/ml
same,Cmax,"[8]; Group E, IV, 7.5 mg/kg Q 4 hr",4.71 ± 0.79 microgram/ml
same,Cmax,"[8]; Group E, oral, 15.0 mg/kg Q 4 hr",10.40 ± 3.47 microgram/ml
same,total body clearance,[8]; IV doses from 1.0 to 5.0 mg/kg,approximately 1900 ml/min/70 kg
same,dose excreted unchanged in the urine as AZT,[8]; IV dosing,about 25%
same,plasma decay after the end of infusion,[8]; IV,biexponential decay after the end of infusion indicating two-compartmental pharmacokinetics
same,mean half-life,"[8]; all dose levels, IV and oral dosing",approximately 1.0 hr
same,dose proportionality of Cmax and AUC,[8]; between 5.0 and 7.5 mg/kg IV and 10.0 and 15 mg/kg oral,a disproportional increase in peak concentrations (Cmax) and area under the plasma-concentration time curve (AUC)
same,drug or metabolite accumulation,[8]; chronic IV or oral dosing,No unexpected drug or metabolite accumulation was observed
same,dose proportionality of concentrations,[8]; doses to 5.0 mg/kg IV and 10 mg/kg oral,"increased proportionally with doses to 5.0 and 10 mg/kg, for IV and oral administration respectively, indicating dose-independent kinetics up to these dosages"
same,renal clearance,[8]; estimated,about 500 ml/min
same,bioavailability,"[8]; oral, all dose levels",60-70%
same,cause of incomplete bioavailability,[8]; oral,"appears to be due to first-pass metabolism, rather than reduced absorption"
same,LD50,rats [9],greater than 70 mg/kg
same,psoriasis clearance,[10]; 800 mg orally per day,completely cleared
same,time to complete clearing of psoriasis,[10]; 800 mg orally per day,two to three
same,time to significant improvement in lesion pruritus,[10]; 800 mg orally per day,≤ 24 h
same,lesion pruritus,"[10]; 800 mg orally per day, within 24 hours",a significant improvement in the lesion pruritus
same,pruritus after AZT was held for 7 days and restarted at half dose,"[10]; AZT held 7 days, restarted at half dose",The pruritus returned temporarily
same,anemia,"[10]; after a month, restarted at half dose",The AZT was held for 7 days after a month for anemia
same,time until psoriasis began to clear,[10]; in vivo,24 h
same,improvement of psoriasis,[10]; over a period several weeks,significant improvement over a period several weeks
same,nail regrowth and psoriasis at three months,[10]; three months,nail regrowth was normal and the psoriasis was completely clear
same,clastogenicity,[11],clastogenic
same,changes,rats [12],no changes were noted
same,glucose,"rats [13]; high dose female rats, day 89",A mild increase in glucose was observed only in high dose female rats on day 89
same,clinical observation (staining of the anogenital area),rats [13]; high dose male rats,occasional staining of the anogenital area in high dose male rats
same,SGOT,rats [13]; high dose rats at various times,a mild decrease in SGOT in high dose rats at various times
same,hematologic changes or gross pathologic changes,"rats [13]; rats, 13 weeks oral",no hematologic changes or gross pathologic changes
same,treatment related deaths,"rats [13]; rats, 56, 167 or 500 mg/kg/day by gavage, 13 weeks",no treatment related deaths
same,maternal weight,pregnant rats,a slight decrease in maternal weight was noted
